# Experimental data: PMC4467156, “A new chemical inhibitor of angiogenesis and tumorigenesis that targets the VEGF signaling pathway upstream of Ras” (Oncotarget, 2015)
# Experiments:
# 3T3-GFP cells = experiment: Scratch wound closure assay, 3T3-GFP; format: cell-based; conditions: wound closure after 24 h, 10% FCS, tested 3.125 μM to 100 μM
# From the text: Using this assay, we screened the academic library of the University of Grenoble, which is composed of 1360 original molecules. Setting the threshold of significant responses at 75% of the maximal inhibition, we identified 80 inhibitory molecules. At this stage, we reasoned that molecules that would affect the cytoskeleton dynamics or the adhesion properties of any cell type would be positive in this assay but would not represent good candidates for further development. We thus decided to perform a secondary counterscreen of the first 80 selected compounds on GFP-expressing 3T3 fibroblasts (3T3-GFP) using the same scratch assay. We then focused our interest on the 5 molecules that inhibited more strongly HMEC-GFP than 3T3-GFP wound healing. […] We synthesized a series of 30 analogs and tested them at various concentrations both on HMEC-GFP and 3T3-GFP cells. […] Dansyl and naphthalimide aromatic groups, found in COB223 and COB227 respectively, appeared very efficient. The presence of the diaminomethyl group on dansyl is critical for the activity of COB223 as shown by the lower efficiency of COB235 (IC50 is 8 times higher than that of COB223). COB223 and COB227 contain a tert-butyloxycarbonyl function (BOC group) as a second hydrophobic group. Replacement of BOC by an amino group decreased the efficiency and the specificity (compare 05-102-L-B09 vs 05-06-L-D03, or COB227 vs COB228).
# Confluent cell monolayers were wounded with a plastic pipet tip, washed gently with phosphate buffer saline (PBS) and treated with complete media containing molecules, as indicated. Cells were placed at 37°C into the incubator and photographed at indicated times. Quantitation of closure of the monolayer was performed using the NIH Image J program (http://rsbweb.nih.gov/ij/). Results are expressed as percentage of wound closure at t = 24 h as compared to the initial wound at t = 0 h.
# HMVECd cells = experiment: Cell viability WST-1, HMVECd; format: cell-based, human; conditions: confluent HMVECd, 24 h at 37°C
# Experimental: Once they had reached confluency, cells were kept for 24 hours in medium supplemented with 0.5% FCS (LLC/2 and 3T3 cells) or 2.5% FCS (HUVEC and HMVEC-d cells), in the presence of COB223 at different concentrations. WST-1 assay (Roche Diagnostic, Meylan, France) was then performed according to the manufacturer's instructions.
# [1] = test system: embryoid bodies derived from mouse embryonic stem cells; experiment: Vascular sprouting of embryoid bodies into collagen gels; format: cell-based; conditions: 12.5 μM COB223 added at day 6
# Experimental: CJ7 cells (1000 cells/well; 12-well plates) were allowed to differentiate in collagen gels in Iscove's medium containing Glutamax (Iscove's modified Dulbecco's medium; Invitrogen) supplemented with 1.2 mg/mL collagen I (BD Biosciences, Bedford, MA), 15% fetal calf serum (Invitrogen), 450 μM monothioglycerol (Sigma-Aldrich), 10 μg/mL insulin (Roche Diagnostics, Basel, Switzerland), 50 U/mL penicillin and 50 μg/mL streptomycin (Invitrogen), as previously described. A cocktail of growth factors was also added containing 50 ng/mL human VEGF-A (AbCys) and 100 ng/mL human FGF-2 (a generous gift from Dr. A. Baird, Whittier Institute, La Jolla, CA). At day 6, molecules were added with a novel addition of 50 ng/mL human VEGF-A and 100 ng/mL human FGF-2. Differentiation was allowed during 11 days.
# Collagen gels containing EBs were dehydrated and fixed in 4% paraformaldehyde during 15 min at room temperature. […] For quantitation of endothelial sprouting, images were captured with a digital camera and measurement of the total length of endothelial sprouts was achieved by morphometric analysis using ImageJ software.
# FGFR1 = FGFR1 (Homo sapiens, UniProt P11362); experiment: In vitro kinase assay FGFR1; format: biochemical; conditions: concentrations up to 50 μM
# Experimental: (§1) We first wondered whether COB223 required to be internalized to exert its biological effect. For this, we synthesized a covalent complex between BSA and COB223 and purified it. […] In vitro kinase assays were performed with a panel of purified protein-kinases involved in mitogenic signaling, including VEGFR2, FGFR1, FGFR2, PDGFRß, Met, Raf, MEK1, ERK1, ERK2, PKCα, PKCβI, PKCβII, PKCζ as indicated in Table 2. […] We then analyzed the effect of COB223 on VEGF-induced phosphorylations of VEGFR2, MEK and ERK1/2 (Figure 9). […] (Figure 9A, 9B). […] It was also specific of the p42/p44 MAP kinase pathway as activation of p38 MAP kinase phosphorylation in HUVEC cells by VEGF or serum was unaffected by COB223 (data not shown). The activation of src phosphorylation by VEGF in HUVECs was also unaffected by COB223 (data not shown).
# ERK1 = ERK1 (Homo sapiens, UniProt P27361); experiment: In vitro kinase assay ERK1; format: biochemical; conditions: concentrations up to 50 μM
# Experimental: as §1
# ERK phosphorylation = ERK phosphorylation in CCL-39 fibroblasts with estrogen-responsive active Raf; format: cell-based; conditions: estradiol 3 h, 25 μM COB223 15 or 30 min
# Experimental: Figure 11 Effect of COB223 on mitogenic or oncogenic activation of the Ras /MEK/ERK signaling pathway (A) Serum-starved HUVEC cells were incubated for 15 min in the presence of 10 ng/mL VEGF-A and in the absence or the presence of 25 μM COB223. The phosphorylations of PLCγ on tyrosine 783, of Raf on serine 338 or on serine 259 and of ERK1/2 were then analyzed by Western blot analysis of the cell lysates as described in Material and Methods. Western blots for total PLCγ, Raf and ERK1/2 were used as loading controls. (B) MCF10A cells overexpressing an oncogenic version of Ras (MCF10A-RasG12V) were treated for the indicated periods of time by 25 μM COB223. Total ERK1/2 and phospho-ERK1/2 were then visualized by Western blotting of the cell extracts. Non-treated regular MCF10A cells were analyzed as a control (first lane). (C) CCL-39 fibroblasts expressing a constitutively active Raf in an estrogen-responsive manner were stimulated for 3 h with estradiol and treated for 15 or 30 min with 25 μM COB223. Total ERK1/2 and phospho-ERK1/2 were then visualized by Western blotting of the cell extracts. Non-treated cells were analyzed as a control (left lanes).
# Chain of ERK1 (P27361 whole entry, species assumed): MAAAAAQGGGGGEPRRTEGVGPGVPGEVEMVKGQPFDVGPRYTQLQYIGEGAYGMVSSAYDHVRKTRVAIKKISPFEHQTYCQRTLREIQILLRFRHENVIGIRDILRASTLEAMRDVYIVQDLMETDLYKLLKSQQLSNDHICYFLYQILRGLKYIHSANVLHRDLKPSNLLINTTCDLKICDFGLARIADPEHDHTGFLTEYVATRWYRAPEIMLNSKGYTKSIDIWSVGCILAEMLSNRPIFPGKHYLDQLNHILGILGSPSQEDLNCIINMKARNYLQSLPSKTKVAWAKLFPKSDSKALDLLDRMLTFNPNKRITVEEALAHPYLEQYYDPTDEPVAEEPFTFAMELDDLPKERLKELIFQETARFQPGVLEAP
# Chain of FGFR1 (P11362 22-822, species assumed): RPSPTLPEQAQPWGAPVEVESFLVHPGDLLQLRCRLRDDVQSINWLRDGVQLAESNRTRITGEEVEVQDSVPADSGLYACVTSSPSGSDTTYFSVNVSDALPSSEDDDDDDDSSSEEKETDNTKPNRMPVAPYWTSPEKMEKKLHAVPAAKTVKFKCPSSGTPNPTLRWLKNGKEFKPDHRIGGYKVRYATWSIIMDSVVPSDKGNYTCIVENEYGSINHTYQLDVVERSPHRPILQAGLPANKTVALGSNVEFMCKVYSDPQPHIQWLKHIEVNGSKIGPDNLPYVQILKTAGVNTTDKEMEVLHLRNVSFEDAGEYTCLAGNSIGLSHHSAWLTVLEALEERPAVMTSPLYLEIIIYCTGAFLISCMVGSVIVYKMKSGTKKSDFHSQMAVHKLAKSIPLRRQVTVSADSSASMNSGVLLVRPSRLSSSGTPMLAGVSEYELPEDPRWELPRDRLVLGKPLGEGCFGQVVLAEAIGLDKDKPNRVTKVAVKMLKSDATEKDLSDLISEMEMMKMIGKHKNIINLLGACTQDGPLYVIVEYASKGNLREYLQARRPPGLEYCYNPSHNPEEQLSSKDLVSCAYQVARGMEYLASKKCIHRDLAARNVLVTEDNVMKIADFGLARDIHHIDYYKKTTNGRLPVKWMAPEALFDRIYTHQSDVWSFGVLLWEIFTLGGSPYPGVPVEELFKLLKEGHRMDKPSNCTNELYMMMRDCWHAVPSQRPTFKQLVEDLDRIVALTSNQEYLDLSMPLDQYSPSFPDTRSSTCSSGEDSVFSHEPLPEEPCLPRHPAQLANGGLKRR
smiles,measurement,setting,value
"CN(C)c1cccc2c(S(=O)(=O)NCCCN3CCN(CCCNC(=O)OC(C)(C)C)CC3)cccc12 [COB223, tert-Butyl 3-(4-(3-(5-(dimethylamino)naphthalene-1-sulfonamido)propyl)piperazin-1-yl) propylcarbamate]",IC50,3T3-GFP cells,25 µM
same,cytotoxic concentrations,HMVECd cells,> 50 µM
same,endothelial sprouting (CD31 immunostaining),[1],complete inhibition
same,kinase inhibition,FGFR1,None of them was inhibited
same,kinase inhibition,ERK1,None of them was inhibited
same,ERK phosphorylation induced by estrogen,ERK phosphorylation,did not inhibit
